Reference: US7166584B1, “Cholesterol transport gene” (Wisconsin Alumni Research Foundation, priority 1999, dated 2007)

Assays:
[1] = target: T1, ABC1 (Mus musculus, UniProt P41233); assay: Cholesterol efflux from 3H-cholesterol-labeled J774 macrophages to apolipoprotein-A1; assay type: cell-based; parameters: Mouse macrophages (J774) were labeled with ^3H-cholesterol; endogenous in cells; host or cells: J774 mouse macrophages; details: 20 μg/ml human apolipoprotein-A1, indicated concentrations, 24 hours, data only in FIG. 4
From the text: A cholesterol efflux assay measures the ability of cells to transfer cholesterol to an extracellular acceptor molecule and is dependent on ABC1 function. A standard cholesterol efflux assay is set out in Marcil et al., Arterioscler. Thromb. Vasc. Biol. 19:159–169, 1999, incorporated by reference herein for all purposes. Prior to this invention, this assay has not been used to identify compounds useful for reducing cholesterol transport from the gut to the blood or lymph, or for reducing LDL or serum cholesterol levels.
In this procedure, cells are loaded with radiolabeled cholesterol by any of several biochemical pathways. Cholesterol efflux of cells is measured after incubation for various times (typically 0 to 24 hours) in the presence of HDL3 or purified ApoAI. Cholesterol efflux is determined as the percentage of total cholesterol in the culture medium after various times of incubation. Increased ABC1 expression levels and/or biological activity are associated with increased efflux while decreased levels of ABC1 expression and/or biological activity are associated with decreased cholesterol efflux.
ABC1 activity can be inhibited genetically or chemically. […] After 24 hours, the medium was collected, centrifuged, and an aliquot collected for radioactivity determination by liquid scintillation counting. […]
Target sequence in this assay (P41233 whole entry): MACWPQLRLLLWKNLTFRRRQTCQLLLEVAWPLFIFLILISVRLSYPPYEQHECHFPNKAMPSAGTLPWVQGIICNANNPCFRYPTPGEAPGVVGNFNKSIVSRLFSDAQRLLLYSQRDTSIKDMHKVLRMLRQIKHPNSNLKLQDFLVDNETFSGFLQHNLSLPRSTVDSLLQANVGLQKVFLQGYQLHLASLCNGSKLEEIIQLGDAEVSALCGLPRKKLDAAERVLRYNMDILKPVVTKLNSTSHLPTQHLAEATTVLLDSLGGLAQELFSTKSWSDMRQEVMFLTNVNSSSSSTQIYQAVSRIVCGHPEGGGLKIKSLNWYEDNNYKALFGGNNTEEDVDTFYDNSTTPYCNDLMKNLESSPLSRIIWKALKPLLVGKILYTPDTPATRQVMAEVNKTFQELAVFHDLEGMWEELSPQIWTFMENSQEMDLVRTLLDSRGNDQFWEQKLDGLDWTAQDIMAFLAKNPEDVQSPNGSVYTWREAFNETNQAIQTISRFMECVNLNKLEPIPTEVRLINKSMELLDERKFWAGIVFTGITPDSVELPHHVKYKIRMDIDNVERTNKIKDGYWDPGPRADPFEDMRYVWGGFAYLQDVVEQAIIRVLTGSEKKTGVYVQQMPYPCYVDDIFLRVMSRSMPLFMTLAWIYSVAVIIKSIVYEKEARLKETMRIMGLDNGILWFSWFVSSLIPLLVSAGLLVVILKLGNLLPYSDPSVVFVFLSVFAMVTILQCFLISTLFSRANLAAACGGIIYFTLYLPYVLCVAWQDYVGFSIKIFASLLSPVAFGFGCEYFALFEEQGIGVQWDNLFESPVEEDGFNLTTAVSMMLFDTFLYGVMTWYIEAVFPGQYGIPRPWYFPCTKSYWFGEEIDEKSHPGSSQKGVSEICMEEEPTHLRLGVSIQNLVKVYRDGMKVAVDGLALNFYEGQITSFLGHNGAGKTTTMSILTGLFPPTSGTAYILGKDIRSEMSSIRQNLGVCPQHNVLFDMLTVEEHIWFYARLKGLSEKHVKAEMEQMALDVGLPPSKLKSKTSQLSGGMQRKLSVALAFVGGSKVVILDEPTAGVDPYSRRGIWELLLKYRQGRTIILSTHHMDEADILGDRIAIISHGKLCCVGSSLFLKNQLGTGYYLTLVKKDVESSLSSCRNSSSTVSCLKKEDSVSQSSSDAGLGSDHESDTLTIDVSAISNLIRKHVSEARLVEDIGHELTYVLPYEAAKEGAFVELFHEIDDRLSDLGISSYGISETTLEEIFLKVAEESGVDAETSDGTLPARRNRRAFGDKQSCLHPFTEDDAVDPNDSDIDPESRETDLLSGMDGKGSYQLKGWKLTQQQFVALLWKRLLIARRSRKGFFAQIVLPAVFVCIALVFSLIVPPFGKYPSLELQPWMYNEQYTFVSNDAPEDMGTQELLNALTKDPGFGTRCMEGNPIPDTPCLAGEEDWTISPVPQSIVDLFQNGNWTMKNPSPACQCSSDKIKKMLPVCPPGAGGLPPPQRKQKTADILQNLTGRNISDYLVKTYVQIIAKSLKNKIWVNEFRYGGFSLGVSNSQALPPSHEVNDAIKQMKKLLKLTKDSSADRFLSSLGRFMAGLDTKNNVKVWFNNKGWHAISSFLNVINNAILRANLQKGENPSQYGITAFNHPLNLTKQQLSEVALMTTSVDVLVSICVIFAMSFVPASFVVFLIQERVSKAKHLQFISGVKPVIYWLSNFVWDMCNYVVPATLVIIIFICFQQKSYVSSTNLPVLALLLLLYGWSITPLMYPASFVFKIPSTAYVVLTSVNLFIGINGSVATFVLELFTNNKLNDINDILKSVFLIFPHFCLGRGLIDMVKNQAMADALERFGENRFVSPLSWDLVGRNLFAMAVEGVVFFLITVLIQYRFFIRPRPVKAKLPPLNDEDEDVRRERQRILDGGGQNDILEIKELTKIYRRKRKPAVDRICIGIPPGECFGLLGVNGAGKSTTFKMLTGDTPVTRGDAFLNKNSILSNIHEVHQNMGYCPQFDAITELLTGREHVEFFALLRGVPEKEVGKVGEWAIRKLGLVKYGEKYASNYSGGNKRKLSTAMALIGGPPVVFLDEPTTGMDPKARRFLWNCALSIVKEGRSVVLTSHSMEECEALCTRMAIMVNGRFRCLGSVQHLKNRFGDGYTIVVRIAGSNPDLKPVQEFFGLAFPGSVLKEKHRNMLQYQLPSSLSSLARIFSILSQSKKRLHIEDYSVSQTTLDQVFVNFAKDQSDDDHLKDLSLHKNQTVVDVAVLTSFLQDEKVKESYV

[2] = target: T1, ABC1; parameters: host or cells: frog oocytes; details: frog oocytes induced to express ABC1; Becq et al. 1997; cited from earlier work
Target sequence in this assay (P41233 61-2261 limits assumed): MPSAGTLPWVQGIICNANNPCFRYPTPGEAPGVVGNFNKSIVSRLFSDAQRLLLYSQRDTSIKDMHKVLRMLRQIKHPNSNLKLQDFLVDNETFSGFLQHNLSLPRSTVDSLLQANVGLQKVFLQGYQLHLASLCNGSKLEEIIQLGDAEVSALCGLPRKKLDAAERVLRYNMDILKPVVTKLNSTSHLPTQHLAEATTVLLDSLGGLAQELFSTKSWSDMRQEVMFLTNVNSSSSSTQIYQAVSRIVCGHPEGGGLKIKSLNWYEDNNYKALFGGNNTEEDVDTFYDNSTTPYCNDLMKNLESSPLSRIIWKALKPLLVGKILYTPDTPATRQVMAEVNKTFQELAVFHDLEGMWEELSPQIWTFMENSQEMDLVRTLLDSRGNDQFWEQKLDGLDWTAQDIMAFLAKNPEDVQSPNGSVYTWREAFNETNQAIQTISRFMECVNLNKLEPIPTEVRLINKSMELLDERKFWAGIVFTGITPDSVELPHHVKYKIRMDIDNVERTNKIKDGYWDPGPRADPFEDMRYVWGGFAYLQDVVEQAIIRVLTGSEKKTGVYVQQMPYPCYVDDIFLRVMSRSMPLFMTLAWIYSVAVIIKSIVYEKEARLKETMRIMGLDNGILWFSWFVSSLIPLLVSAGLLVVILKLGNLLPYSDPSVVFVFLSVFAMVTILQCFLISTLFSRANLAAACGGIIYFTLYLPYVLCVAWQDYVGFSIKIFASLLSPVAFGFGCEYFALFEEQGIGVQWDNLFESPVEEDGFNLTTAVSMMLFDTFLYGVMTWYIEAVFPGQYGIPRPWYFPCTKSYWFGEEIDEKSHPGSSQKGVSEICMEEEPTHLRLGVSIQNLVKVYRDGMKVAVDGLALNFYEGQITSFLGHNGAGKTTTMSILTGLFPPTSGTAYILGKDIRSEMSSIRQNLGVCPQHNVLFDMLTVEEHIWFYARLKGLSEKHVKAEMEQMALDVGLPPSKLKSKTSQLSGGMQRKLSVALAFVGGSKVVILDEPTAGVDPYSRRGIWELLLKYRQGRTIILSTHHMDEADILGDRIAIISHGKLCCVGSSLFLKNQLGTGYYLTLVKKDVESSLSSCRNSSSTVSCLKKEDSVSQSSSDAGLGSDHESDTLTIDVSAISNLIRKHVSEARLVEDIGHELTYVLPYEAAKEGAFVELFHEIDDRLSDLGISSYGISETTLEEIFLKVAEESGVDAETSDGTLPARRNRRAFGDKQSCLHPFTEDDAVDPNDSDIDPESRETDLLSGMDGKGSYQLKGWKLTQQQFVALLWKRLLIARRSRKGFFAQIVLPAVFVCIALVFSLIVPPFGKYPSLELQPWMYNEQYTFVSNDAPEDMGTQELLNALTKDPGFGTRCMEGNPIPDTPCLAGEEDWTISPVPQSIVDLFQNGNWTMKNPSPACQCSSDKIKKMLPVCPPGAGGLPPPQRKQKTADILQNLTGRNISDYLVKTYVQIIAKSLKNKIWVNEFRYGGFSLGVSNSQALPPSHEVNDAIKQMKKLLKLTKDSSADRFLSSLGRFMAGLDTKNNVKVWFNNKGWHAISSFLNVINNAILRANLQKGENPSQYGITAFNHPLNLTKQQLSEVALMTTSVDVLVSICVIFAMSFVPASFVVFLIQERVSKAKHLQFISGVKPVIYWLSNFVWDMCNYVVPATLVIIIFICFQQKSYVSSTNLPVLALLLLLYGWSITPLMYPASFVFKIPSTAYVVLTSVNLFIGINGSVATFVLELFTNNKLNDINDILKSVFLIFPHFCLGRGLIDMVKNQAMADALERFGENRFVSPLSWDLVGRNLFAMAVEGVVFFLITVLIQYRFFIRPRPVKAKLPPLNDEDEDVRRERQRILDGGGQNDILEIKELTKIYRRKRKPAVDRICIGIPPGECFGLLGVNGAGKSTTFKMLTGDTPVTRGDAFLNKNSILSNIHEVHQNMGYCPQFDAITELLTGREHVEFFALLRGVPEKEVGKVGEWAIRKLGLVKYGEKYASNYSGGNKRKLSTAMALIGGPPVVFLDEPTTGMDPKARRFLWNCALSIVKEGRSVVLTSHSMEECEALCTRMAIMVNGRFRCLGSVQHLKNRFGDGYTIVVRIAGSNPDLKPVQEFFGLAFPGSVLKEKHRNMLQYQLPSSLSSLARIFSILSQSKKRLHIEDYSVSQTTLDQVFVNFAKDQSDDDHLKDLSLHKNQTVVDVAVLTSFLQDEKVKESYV

COc1ccc(Cl)cc1C(=O)NCCc1ccc(S(=O)(=O)NC(=O)NC2CCCCC2)cc1 [Glyburide]
Inhibition of ABC1 activity (cholesterol efflux) [1]: inhibit ABC1 activity
Inhibition of iodide transport [2]: inhibit iodide transport
